Measured values reported in patent publication US20230158025A1 (UNIVERSITY OF UTAH RESEARCH FOUNDATION, priority 2020, published 2023).
pIC50: −log10 of the molar value. Where two headings read alike, the source gives them in different places.

How the values were obtained:
recombinant human GALK1 = recombinant human GALK1 (Homo sapiens, UniProt P51570); assay: hGALK1 biochemical activity assay (Kinase-Glo Plus, ATP depletion)
In short: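 Recombinant human or mouse GALK1 (5 nM, with 100 μM galactose, in the added enzyme solution) was run with ATP (35 μM in the substrate solution) in HEPES pH 8.0 buffer. Compounds were tested at 11 1/3-step concentrations from 57.4 μM to 0.97 nM. After 1 h at room temperature, remaining ATP was read by Kinase-Glo Plus luminescence.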

hGALK1m = biological target: T1, hGALK1m (Homo sapiens, UniProt P51570, E253A/K252A); assay: in vitro hGALK1 activity assay of the structure-based optimisation (Example 12, Tables 17-20); assay type: biochemical
T1 construct: made in house; host or cells: E. coli HMS174
T1 sequence (P51570 whole entry K252A/E253A): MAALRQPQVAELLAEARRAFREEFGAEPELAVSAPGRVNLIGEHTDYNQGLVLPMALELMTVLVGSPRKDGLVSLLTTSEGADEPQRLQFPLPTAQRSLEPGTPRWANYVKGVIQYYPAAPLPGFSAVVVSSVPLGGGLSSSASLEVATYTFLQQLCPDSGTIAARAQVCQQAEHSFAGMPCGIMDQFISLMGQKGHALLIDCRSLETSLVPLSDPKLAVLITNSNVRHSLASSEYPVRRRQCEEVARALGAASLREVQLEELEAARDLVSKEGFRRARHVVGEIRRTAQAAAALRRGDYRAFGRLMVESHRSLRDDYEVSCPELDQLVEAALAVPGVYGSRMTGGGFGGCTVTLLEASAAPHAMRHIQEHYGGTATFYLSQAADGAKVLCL
Experimental: In vitro hGALK1 activity assays were performed as previously described. Liu et al., Bioorg. Med. Chem. Lett. 25(3): 721-727 (2015), which is incorporated by reference herein for the specific teachings thereof. The biochemical assay was performed by coupling the activity of recombinant human or mouse GALK1 to the Kinase-Glo Plus luminescent ATP detection kit, using ATP depletion as a measure of GALK1 turnover. Specifically, three μL/well of ATP substrate solution (35 μM ATP) in assay buffer (20 mM HEPES pH 8.0, 5 mM MgCl2, 60 mM NaCl, 1 mM DTT, 0.01% BSA final concentration) was dispensed into 1536-well assay plates (Greiner, white solid-bottom medium-binding plates). Aliquots of compound (23 nL solubilized in DMSO) were transferred to the assay plates using a Kalypsys 1536-well pintool such that 11 concentrations with 1/3 dilutions ranging from 57.4 μM-0.97 nM are tested. One μL/well of GALK-galactose solution (5 nM GALK1, 100 μM galactose) in assay buffer was then added, yielding a final reaction volume of 4 μL/well. Following a 1-hour room temperature incubation, 4 μL of Kinase-Glo Plus detection reagent was added to provide an ATP-dependent luminescent readout (final assay volume: 8 μL/well). Luminescence was detected using a ViewLux plate reader (PerkinElmer) after a 10-minute incubation, using a 1 second exposure time and 2× binning.
The in vitro hGALK1 activity assay was performed as previously described. Liu et al., Bioorg. Med. Chem. Lett. 25(3): 721-727 (2015). For the measurement of cellular Gal-1P reduction, compounds at different concentrations were added to cultured patient fibroblast at 80% confluency. After incubating the compounds for 16 hours, 10 mM galactose was added to the culture. After another 4 hours, cells were washed with cold PBS buffer 3× and harvested for gal-1P measurement, according to the previously published method. Liu et al., Bioorg. Med. Chem. Lett. 25(3): 721-727 (2015).

[1] = rat microsomal stability (RLM); settings: for half-life: rat, rat liver microsomes
recombinant mouse GALK1 = recombinant mouse GALK1 (Mus musculus, UniProt Q9R0N0); assay: mGALK1 biochemical activity assay (Kinase-Glo Plus, ATP depletion)
Sequence of recombinant mouse GALK1 (Q9R0N0 whole entry): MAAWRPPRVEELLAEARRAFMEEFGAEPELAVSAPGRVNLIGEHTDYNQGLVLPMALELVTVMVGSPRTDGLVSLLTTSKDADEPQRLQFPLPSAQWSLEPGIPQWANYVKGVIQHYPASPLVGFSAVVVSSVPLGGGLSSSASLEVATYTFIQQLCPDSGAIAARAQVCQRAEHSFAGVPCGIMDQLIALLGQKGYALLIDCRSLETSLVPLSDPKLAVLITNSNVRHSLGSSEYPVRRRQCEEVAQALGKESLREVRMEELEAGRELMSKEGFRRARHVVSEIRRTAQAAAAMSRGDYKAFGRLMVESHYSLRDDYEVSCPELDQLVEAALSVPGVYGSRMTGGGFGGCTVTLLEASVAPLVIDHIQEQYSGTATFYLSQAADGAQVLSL
In short: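 Recombinant GALK1 (5 nM) with 100 μM galactose; GALK1 turnover read as ATP depletion by Kinase-Glo Plus luminescence. Reaction ran 1 h at room temperature before detection reagent was added.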

[2] = aqueous kinetic solubility
[3] = recombinant human GALK1, Kinase-Glo Plus ATP depletion, read-out: hGALK
[4] = 1 h, Table 17, read-out: Efficacy
[5] = Table 17, amide group optimization, no unit in table
[6] = Tables 2-15, 35 μM ATP, 100 μM galactose, 1 h, bracketed figure after some values is undefined and not reported, read-out: mGALK IC50
[7] = recombinant mouse GALK1, Kinase-Glo Plus ATP depletion, read-out: mGALK
[8] = PAMPA, ADME P: PAMPA permeability (class), Tables 17-19, class probably colour-coded, colour lost
[9] = Tables 2-15, 35 μM ATP, 100 μM galactose, 1 h, bracketed figure after some values (e.g. −1.2) is undefined and not reported, read-out: hGALK IC50
[10] = Tables 18-19, read-out: Max Response (%)
[11] = Tables 18-19 and text of Example 12
[12] = Tables 18-20 and text of Example 12

Sequence of recombinant human GALK1 (P51570 whole entry): as the sequence (P51570 whole entry K252A/E253A) above, with A252K, A253E counted along it

pIC50 (recombinant human GALK1; [3]) | Emax (hGALK1m; [4]) | pIC50 (hGALK1m; [5]) | Metab. Stabil. (m) ([1]; microsomal stability half-life) | half-life [1] | pIC50 (recombinant mouse GALK1; [6]) | pIC50 (recombinant mouse GALK1; [7]) | Perm. (1 × 10^−6 cm/sec) (PAMPA permeability; PAMPA) | Papp (PAMPA permeability; [8]) | Sol. ([2]; aqueous kinetic solubility) | pIC50 (recombinant human GALK1; [9]) | Emax (hGALK1m; [10]) | pIC50 (hGALK1m; [11]) | Metab. Stabil. (m) ([1]; microsomal half-life) | Perm. (1 × 10^−6 cm/sec) (PAMPA permeability) | Sol. [2] | pIC50 (hGALK1m; [12]) | Papp (PAMPA permeability; PAMPA, Perm. (1 × 10^−6 cm/sec)) | change of potency versus parent compound (in words) (hGALK1m) | fold decrease of potency versus parent compound (hGALK1m; loss of potency relative to the unsubstituted parent) | SMILES
5.76 | 98% | 5.85 | 8.8722 m | < 10 min | 5.16 | 5.16 | 98.8 1 × 10^−6 cm/sec | < 10 ×10⁻⁶ cm/s | 42.0 µg/mL | – | – | – | – | – | – | – | – | – | – | CC1=C(C(=O)NCc2cncn2C)C(c2ccccc2Cl)N=C(Nc2nc3ccccc3o2)N1 (centres unmarked) [Compound 230, 2-(benzo[d]oxazol-2-ylamino)-4-(2-chlorophenyl)-6-methyl-N-((1-methyl-1H-imidazol-5-yl)methyl)-1,4-dihydropyrimidine-5-carboxamide]
– | – | – | – | < 10 min | 4.86 | 4.86 | – | < 10 ×10⁻⁶ cm/s | – | 5.26 | 85% | 5.24 | >30 m | <1.3 1 × 10^−6 cm/sec | <1 µg/mL | – | – | – | – | CC1=C(C(=O)Nc2cc(C(=O)O)ccn2)C(c2ccccc2Cl)N=C(Nc2nc3c(Cl)cccc3o2)N1 (centres unmarked) [Compound 11, 2-(2-((4-chlorobenzo[d]oxazol-2-yl)amino)-4-(2-chlorophenyl)-6-methyl-1,4-dihydropyrimidine-5-carboxamido)isonicotinic acid]
5.97 | 88% | – | >30 m | < 10 min | 5.16 | 5.16 | – | < 10 ×10⁻⁶ cm/s | >74 µg/mL | 5.97 | – | – | – | – | – | 6.01 | < 1 ×10⁻⁶ cm/s | – | – | CC1=C(C(=O)Nc2cc(C(=O)O)ccn2)C(c2ccccc2Cl)N=C(Nc2nc3ccccc3o2)N1 (racemic) [Compound 194, 2-(2-(benzo[d]oxazol-2-ylamino)-4-(2-chlorophenyl)-6-methyl-1,4-dihydropyrimidine-5-carboxamido)isonicotinic acid]
– | – | – | – | < 10 min | 4.66 | 4.66 | – | < 10 ×10⁻⁶ cm/s | – | 5.11 | 100% | 5.26 | >30 m | – | >76 µg/mL | – | – | – | – | CC1=C(C(=O)Nc2cc(C(=O)O)ccn2)C(c2ccccc2Cl)N=C(Nc2nc3cc(N)ccc3o2)N1 (centres unmarked) [Compound 12, 2-(2-((5-aminobenzo[d]oxazol-2-yl)amino)-4-(2-chlorophenyl)-6-methyl-1,4-dihydropyrimidine-5-carboxamido)isonicotinic acid]
5.76 | – | – | – | < 10 min | 5.06 | 5.06 | – | < 10 ×10⁻⁶ cm/s | – | – | 100% | 6.00 | >30 m | <1 1 × 10^−6 cm/sec | >77 µg/mL | – | – | did not change the potency | – | CC1=C(C(=O)Nc2cc(C(=O)O)ccn2)C(c2ccccc2Cl)N=C(Nc2nc3cccc(F)c3o2)N1 (centres unmarked) [Compound 10, 2-(4-(2-chlorophenyl)-2-((7-fluorobenzo[d]oxazol-2-yl)amino)-6-methyl-1,4-dihydropyrimidine-5-carboxamido)isonicotinic acid]
5.16 | – | – | – | < 10 min | 4.71 | 4.71 | – | < 10 ×10⁻⁶ cm/s | – | 5.16 | 100% | 5.27 | >30 m | <1 1 × 10^−6 cm/sec | >81 µg/mL | – | – | – | – | COc1cccc(C2N=C(Nc3nc4ccc(F)cc4o3)NC(C)=C2C(=O)Nc2cc(C(=O)O)ccn2)c1Cl (centres unmarked) [Compound 52, 2-(4-(2-chloro-3-methoxyphenyl)-2-((6-fluorobenzo[d]oxazol-2-yl)amino)-6-methyl-1,4-dihydropyrimidine-5-carboxamido)isonicotinic acid]
5.71 | – | – | – | < 10 min | 5.21 | 5.21 | – | < 10 ×10⁻⁶ cm/s | – | – | 100% | 5.65 | >30 m | – | 6.3 µg/mL | – | – | – | more than 2 fold | CC1=C(C(=O)Nc2cc(C(=O)O)ccn2)C(c2ccccc2Cl)N=C(Nc2nc3ccc(Cl)cc3o2)N1 (centres unmarked) [Compound 14, 2-(2-((6-chlorobenzo[d]oxazol-2-yl)amino)-4-(2-chlorophenyl)-6-methyl-1,4-dihydropyrimidine-5-carboxamido)isonicotinic acid]
5.01 | – | – | – | < 10 min | 4.76 | 4.76 | – | < 10 ×10⁻⁶ cm/s | – | – | 100% | 5.26 | >30 m | <1.3 1 × 10^−6 cm/sec | 3.5 µg/mL | – | – | – | – | CC1=C(C(=O)Nc2cc(C(=O)O)ccn2)C(c2ccccc2Cl)N=C(Nc2nc3c(C)cccc3o2)N1 (centres unmarked) [Compound 18, 2-(4-(2-chlorophenyl)-6-methyl-2-((4-methylbenzo[d]oxazol-2-yl)amino)-1,4-dihydropyrimidine-5-carboxamido)isonicotinic acid]
5.41 | – | – | – | – | 4.66 | 4.66 | – | – | – | – | 100% | 5.48 | – | – | – | – | – | – | – | CC1=C(C(=O)Nc2cc(C(=O)O)ccn2)C(c2ccccc2Cl)N=C(Nc2nc3c(F)cccc3o2)N1 (centres unmarked) [Compound 8, 2-(4-(2-chlorophenyl)-6-methyl-2-((4-fluorobenzo[d]oxazol-2-yl)amino)-1,4-dihydropyrimidine-5-carboxamido)isonicotinic acid]
5.76 | 91% | 5.77 | >30 m | < 10 min | – | – | <1 1 × 10^−6 cm/sec | < 10 ×10⁻⁶ cm/s | >75 µg/mL | 5.76 | – | – | – | – | – | – | – | – | – | CC1=C(C(=O)Nc2ncc(C(=O)O)s2)C(c2ccccc2Cl)N=C(Nc2nc3ccccc3o2)N1 (centres unmarked) [Compound 199, 2-(2-(benzo[d]oxazol-2-ylamino)-4-(2-chlorophenyl)-6-methyl-1,4-dihydropyrimidine-5-carboxamido)thiazole-5-carboxylic acid]
– | – | – | – | – | – | – | – | – | – | – | – | – | – | – | – | 6.52 | – | – | – | CC1=C(C(=O)Nc2cc(C(=O)O)ccn2)[C@@H](c2ccccc2Cl)N=C(Nc2nc3ccccc3o2)N1 [S-enantiomer of Compound 194]
– | – | – | – | < 10 min | 4.76 | 4.76 | – | < 10 ×10⁻⁶ cm/s | – | 5.46 | 100% | 5.44 | – | – | – | – | – | – | – | CC1=C(C(=O)Nc2cc(C(=O)O)ccn2)C(c2ccccc2Cl)N=C(Nc2nc3cc(F)ccc3o2)N1 (centres unmarked) [Compound 13, 2-(4-(2-chlorophenyl)-2-((5-fluorobenzo[d]oxazol-2-yl)amino)-6-methyl-1,4-dihydropyrimidine-5-carboxamido)isonicotinic acid]
5.31 | – | – | – | < 10 min | 4.81 | 4.81 | – | < 10 ×10⁻⁶ cm/s | – | 5.31 | 100% | 5.74 | – | – | – | – | – | compromised the potency | – | CC1=C(C(=O)Nc2cc(C(=O)O)ccn2)C(c2cccc(F)c2Cl)N=C(Nc2nc3ccc(F)cc3o2)N1 (centres unmarked) [Compound 48, 2-(4-(2-chloro-3-fluorophenyl)-2-((6-fluorobenzo[d]oxazol-2-yl)amino)-6-methyl-1,4-dihydropyrimidine-5-carboxamido)isonicotinic acid]
